# From US20090304810A1, “Composition and method for enhanced sanitation and oxidation of aqueous systems” (priority 2005, published 2009)
# Legend:
# planktonic algae = assay: Algae destruction in outdoor pool; type: cell-based; conditions: same pool system, opening procedure, 500 lbs
# Procedure: In an outdoor 360,000 gallon pool contaminated with planktonic algae, 200 lbs of the cobalt monopersulfate composition comprising 99.3 wt % Potassium monopersulfate, 0.5 wt % Magnesium Carbonate, and 0.2 wt % Cobalt Acetate as previously disclosed was added to the system by broadcasting. 40 pounds of soda ash was added to neutralize excess acidity, and the ORP controller was set at 780 mV.
# The ORP was consistently achieving 780 mV with 2.0-2.5 ppm of free chlorine.
# For comparison purposes, the same pool system during the opening procedure was treated with 500 lbs of calcium hypochlorite and allowed to circulate for 7 days before obtaining the water clarity and being allowed to open to swimmers.
# Catalyst precipitation = type: physicochemical
# Procedure: 20 grams of potassium monopersulfate, 0.1 grams cuprous chloride and 80 grams distilled water was added to a 250 ml beaker and mixed on a magnetic stirrer until dissolved. 1 gram of solution was carefully measured and diluted with 99 grams of distilled water. The diluted sample was treated with sodium bisulfite to remove residual monopersulfate, the pH was then adjusted to 7.3 using a diluted solution of sodium hydroxide. The resulting clear solution was tested using a HACH Company Method 8506 bicinchoninate-powder pillow test procedure and a DR-2000 spectrophotometer. The resulting copper level was measured and corrected compensate for the dilution. The final result being 4.9 ppm as Cu.
# A second 1-gram sample from the original solution was neutralized with sodium bisulfite, then treated with 2-grams of 0.1 wt % alum solution to achieve approximately 20 ppm as alum in the diluted solution. The pH was adjust with dilute sodium hydroxide to achieve a pH of approximately 7.3, mixed for about 5 minutes, then allowed to settle in a graduated cylinder. 25 ml of clear water was decanted and tested for copper, resulting a value of 0.78 ppm as Cu.
compound,measurement,setting,value
[Ca+2].[O-]Cl.[O-]Cl [calcium hypochlorite],circulation time before obtaining water clarity,planktonic algae,7 days
alum,copper level in decanted clear water,"Catalyst precipitation; approximately 20 ppm alum, pH approximately 7.3, mixed about 5 minutes, settled",0.78 ppm as Cu
[Cl][Cu] [cuprous chloride],copper level,"Catalyst precipitation; no alum, 1:99 diluted, pH 7.3, monopersulfate removed",4.9 ppm as Cu
